Several values for one entry are separate records, joined by “and”; a condition that tells them apart may be missing. Equal values may be shown once.
What was measured:
Type in all cases: biochemical
mAC3 = biological target: T1, mAC3 (Homo sapiens, UniProt O60266); test: AC assay, Gsα-stimulated mAC3 in membranes from transfected HEK293 cells; conditions: for mAC3 activity [%] (100% = 300nM Gsα stimulation): fatty acid 20 µM, individual experiments; for Effect of lipid on 300 nM Gsα-stimulated mAC3: 20 µM, in words
T1 construct: Human mAC genes were from GenScript and fitted with a C-terminal FLAG-tag; FLAG (C); made in house; host or cells: HEK293, permanently transfected; membrane preparation
Experimental: (§1) hAC sequences were from NCBI were: ADCY1: NM_021116.3; ADCY2: NM_020546.2; ADCY3: NM_004036.4; ADCY4: NM_001198568.2; ADCY5: NM_183357.2; ADCY6: NM_015270.4; ADCY7: NM_001114.4; ADCY8: NM_001115.2; ADCY9: NM_001116.3. Human mAC genes were from GenScript and fitted with a C-terminal FLAG-tag. […] The gene was synthesized by GenScript. HEK293 cells were maintained in Dulbeccos Modified Eagle Medium (DMEM) with 10% fetal bovine serum at 37°C and 5% CO2. Transfection with AC plasmids was with PolyJet (SignaGen, Frederick, MD, USA). Permanent cell lines were generated by selection for 7 days with 600 µg/ml G418 and maintained with 300 µg/ml For membrane preparation, cells were tyrpsinized, collected by centrifugation (3000 × g, 5 min) and lysed and homogenized in 20 mM HEPES, pH 7.5, 1 mM Ethylenediaminetetraacetic acid (EDTA), 2 mM MgCl2, 1 mM Dithiothreitol (DTT), one tablet of cOmplete, EDTA-free (per 50 ml) and 250 mM sucrose by 20 strokes in a potter homogenizer on ice. Debris was removed (5 min at 1000 × g, 0°C), membranes were collected at 100,000 × g, 60 min at 0°C, suspended and stored at −80°C in 20 mM MOPS, pH 7.5, 0.5 mM EDTA, 2 mM MgCl2. […] Three cerebral cortices were dissected and homogenized in 4.5 ml cold 48 mM Tris–HCl, pH 7.4, 12 mM MgC1_2, and 0.1 mM Ethylene glycol-bis(β-aminoethyl ether)-N,N,N′,N′-tetraacetic acid (EGTA) with a Polytron hand disperser (Kinematica AG, Switzerland). […] The pellet was washed once with 5 ml 1 mM KHCO3. The final suspension in 2 ml 1 mM KHCO3 was stored in aliquots at −80°C.
(§2) In a volume of 10 μl, AC activities were measured using 1 mM ATP, 2 mM MgCl2, 3 mM creatine phosphate, 60 μg/ml creatine kinase, and 50 mM MOPS pH 7.5. The cAMP assay kit from Cisbio (Codolet, France) was used for detection according to the supplier’s instructions. For each assay, a cAMP standard curve was established. EC50 and IC50 values were calculated by GraphPad Prism version 8.4.3 for Windows, GraphPad Software, San Diego, CA, USA, https://www.graphpad.com .

mAC5 = biological target: T2, mAC5 (Homo sapiens, UniProt O95622); test: AC assay, Gsα-stimulated mAC5 in membranes from transfected HEK293 cells; conditions: 20µM fatty acid concentration
T2 construct: Human mAC genes were from GenScript and fitted with a C-terminal FLAG-tag; FLAG (C); made in house; host or cells: HEK293, permanently transfected; membrane preparation
Experimental: as §1, §2

mAC7 = biological target: T3, mAC7 (Homo sapiens, UniProt P51828); test: AC assay, Gsα-stimulated mAC7 in membranes from transfected HEK293 cells; conditions: for mAC7 activity [%] (100% = 300nM Gsα stimulation); 20µM fatty acid concentration: Figure 5-figure supplement 2 left
T3 construct: Human mAC genes were from GenScript and fitted with a C-terminal FLAG-tag; FLAG (C); made in house; host or cells: HEK293, permanently transfected; membrane preparation
Experimental: as §1, §2

mAC9 = biological target: T4, mAC9 (Homo sapiens, UniProt O60503); test: AC assay, Gsα-stimulated mAC9 in membranes from transfected HEK293 cells; conditions: for mAC9 activity [%] (100% = 300nM Gsα stimulation); 20µM fatty acid concentration / mAC9 activity (%);(100% = Gsα stimulation) stimulated by 300nM Gsα: single experiments
T4 construct: Human mAC genes were from GenScript and fitted with a C-terminal FLAG-tag; FLAG (C); made in house; host or cells: HEK293, permanently transfected; membrane preparation
Experimental: as §1, §2

mAC1 = biological target: T5, mAC1 (Homo sapiens, UniProt Q08828); test: AC assay, Gsα-stimulated mAC1 in membranes from transfected HEK293 cells; conditions: for mAC1 activity [%] (100% = 300nM Gsα stimulation); 20µM fatty acid concentration: single experiments
T5 construct: Human mAC genes were from GenScript and fitted with a C-terminal FLAG-tag; FLAG (C); made in house; host or cells: HEK293, permanently transfected; membrane preparation
Experimental: as §1, §2

mAC2 = biological target: T6, mAC2 (Homo sapiens, UniProt Q08462); test: AC assay, Gsα-stimulated mAC2 in membranes from transfected HEK293 cells; conditions: Figure 5-figure supplement 1 left, 20 µM
T6 construct: Human mAC genes were from GenScript and fitted with a C-terminal FLAG-tag; FLAG (C); made in house; host or cells: HEK293, permanently transfected; membrane preparation
Experimental: as §1, §2

mAC4 = biological target: T7, mAC4 (Homo sapiens, UniProt Q8NFM4); test: AC assay, Gsα-stimulated mAC4 in membranes from transfected HEK293 cells; conditions: for mAC4 activity [%] (100% = 300nM Gsα stimulation); 20µM fatty acid concentration: single experiments
T7 construct: Human mAC genes were from GenScript and fitted with a C-terminal FLAG-tag; FLAG (C); made in house; host or cells: HEK293, permanently transfected; membrane preparation
T7 sequence (Q8NFM4 1-1077): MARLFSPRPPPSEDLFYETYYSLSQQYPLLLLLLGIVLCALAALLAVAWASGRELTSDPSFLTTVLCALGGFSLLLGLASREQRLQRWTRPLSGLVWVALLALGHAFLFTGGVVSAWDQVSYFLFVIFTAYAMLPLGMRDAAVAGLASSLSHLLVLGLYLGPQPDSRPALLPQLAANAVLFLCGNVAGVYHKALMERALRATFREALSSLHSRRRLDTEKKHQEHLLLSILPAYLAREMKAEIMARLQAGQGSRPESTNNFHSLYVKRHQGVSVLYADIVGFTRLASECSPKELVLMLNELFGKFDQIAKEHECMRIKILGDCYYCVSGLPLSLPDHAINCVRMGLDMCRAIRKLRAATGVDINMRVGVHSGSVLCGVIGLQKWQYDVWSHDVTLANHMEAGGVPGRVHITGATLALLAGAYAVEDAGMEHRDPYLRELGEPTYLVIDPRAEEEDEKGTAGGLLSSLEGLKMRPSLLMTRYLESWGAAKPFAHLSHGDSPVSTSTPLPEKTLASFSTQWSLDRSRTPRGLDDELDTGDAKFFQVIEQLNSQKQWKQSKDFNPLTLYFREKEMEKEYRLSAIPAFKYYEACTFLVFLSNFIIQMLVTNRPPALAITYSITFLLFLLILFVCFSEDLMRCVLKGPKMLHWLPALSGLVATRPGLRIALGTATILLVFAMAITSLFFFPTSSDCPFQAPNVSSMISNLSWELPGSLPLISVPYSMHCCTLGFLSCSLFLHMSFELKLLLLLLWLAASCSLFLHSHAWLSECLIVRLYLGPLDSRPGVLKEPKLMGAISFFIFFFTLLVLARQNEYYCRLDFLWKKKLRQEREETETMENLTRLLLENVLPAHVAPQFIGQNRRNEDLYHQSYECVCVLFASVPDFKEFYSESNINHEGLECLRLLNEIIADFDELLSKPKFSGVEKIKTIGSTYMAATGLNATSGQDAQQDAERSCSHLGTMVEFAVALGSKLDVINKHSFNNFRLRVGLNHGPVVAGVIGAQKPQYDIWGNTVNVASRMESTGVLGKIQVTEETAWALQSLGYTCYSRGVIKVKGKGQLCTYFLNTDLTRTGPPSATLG
Experimental: as §1, §2

mAC6 = biological target: T8, mAC6 (Homo sapiens, UniProt O43306); test: AC assay, Gsα-stimulated mAC6 in membranes from transfected HEK293 cells; conditions: 20µM fatty acid concentration
T8 construct: Human mAC genes were from GenScript and fitted with a C-terminal FLAG-tag; FLAG (C); made in house; host or cells: HEK293, permanently transfected; membrane preparation
Experimental: as §1, §2

T3 sequence (P51828 whole entry): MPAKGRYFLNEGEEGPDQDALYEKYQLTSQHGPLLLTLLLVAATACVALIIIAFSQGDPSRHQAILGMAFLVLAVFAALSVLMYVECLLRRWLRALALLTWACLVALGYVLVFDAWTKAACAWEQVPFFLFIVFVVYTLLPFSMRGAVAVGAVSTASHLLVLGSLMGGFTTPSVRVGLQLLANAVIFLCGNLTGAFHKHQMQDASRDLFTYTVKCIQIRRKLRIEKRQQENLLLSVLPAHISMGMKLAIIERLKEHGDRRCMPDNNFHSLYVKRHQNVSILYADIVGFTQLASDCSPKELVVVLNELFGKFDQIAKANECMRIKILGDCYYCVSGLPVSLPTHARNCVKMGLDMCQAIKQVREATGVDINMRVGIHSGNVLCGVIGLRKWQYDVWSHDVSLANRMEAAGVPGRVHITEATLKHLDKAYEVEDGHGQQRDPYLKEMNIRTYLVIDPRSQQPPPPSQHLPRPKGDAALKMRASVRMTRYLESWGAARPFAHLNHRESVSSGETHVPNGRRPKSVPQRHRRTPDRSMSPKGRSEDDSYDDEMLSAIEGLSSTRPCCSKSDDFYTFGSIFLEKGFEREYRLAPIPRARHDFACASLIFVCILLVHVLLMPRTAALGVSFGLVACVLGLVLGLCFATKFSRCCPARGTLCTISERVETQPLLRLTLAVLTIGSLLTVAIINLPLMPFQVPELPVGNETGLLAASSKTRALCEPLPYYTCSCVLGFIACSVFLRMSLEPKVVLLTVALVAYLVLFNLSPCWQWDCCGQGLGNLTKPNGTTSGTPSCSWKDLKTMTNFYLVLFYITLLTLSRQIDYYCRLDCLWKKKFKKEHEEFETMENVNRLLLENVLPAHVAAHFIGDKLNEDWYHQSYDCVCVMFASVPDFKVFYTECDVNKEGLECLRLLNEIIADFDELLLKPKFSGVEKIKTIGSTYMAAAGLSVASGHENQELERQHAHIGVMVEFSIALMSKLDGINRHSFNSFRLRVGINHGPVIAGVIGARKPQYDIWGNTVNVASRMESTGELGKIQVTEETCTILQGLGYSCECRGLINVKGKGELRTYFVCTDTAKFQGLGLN
T3 sequence (P63092 2-394 Q227L partner): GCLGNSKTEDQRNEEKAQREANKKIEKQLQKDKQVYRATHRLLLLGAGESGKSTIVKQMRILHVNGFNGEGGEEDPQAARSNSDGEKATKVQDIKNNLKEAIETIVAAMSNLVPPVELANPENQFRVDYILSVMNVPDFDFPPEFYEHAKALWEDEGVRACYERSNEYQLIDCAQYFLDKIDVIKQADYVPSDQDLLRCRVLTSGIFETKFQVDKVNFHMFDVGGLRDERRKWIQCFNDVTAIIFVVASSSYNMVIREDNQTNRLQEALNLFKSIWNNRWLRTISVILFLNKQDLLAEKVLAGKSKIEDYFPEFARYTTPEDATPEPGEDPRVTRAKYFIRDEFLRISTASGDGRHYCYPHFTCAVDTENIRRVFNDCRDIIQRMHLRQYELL
T6 sequence (Q08462 whole entry): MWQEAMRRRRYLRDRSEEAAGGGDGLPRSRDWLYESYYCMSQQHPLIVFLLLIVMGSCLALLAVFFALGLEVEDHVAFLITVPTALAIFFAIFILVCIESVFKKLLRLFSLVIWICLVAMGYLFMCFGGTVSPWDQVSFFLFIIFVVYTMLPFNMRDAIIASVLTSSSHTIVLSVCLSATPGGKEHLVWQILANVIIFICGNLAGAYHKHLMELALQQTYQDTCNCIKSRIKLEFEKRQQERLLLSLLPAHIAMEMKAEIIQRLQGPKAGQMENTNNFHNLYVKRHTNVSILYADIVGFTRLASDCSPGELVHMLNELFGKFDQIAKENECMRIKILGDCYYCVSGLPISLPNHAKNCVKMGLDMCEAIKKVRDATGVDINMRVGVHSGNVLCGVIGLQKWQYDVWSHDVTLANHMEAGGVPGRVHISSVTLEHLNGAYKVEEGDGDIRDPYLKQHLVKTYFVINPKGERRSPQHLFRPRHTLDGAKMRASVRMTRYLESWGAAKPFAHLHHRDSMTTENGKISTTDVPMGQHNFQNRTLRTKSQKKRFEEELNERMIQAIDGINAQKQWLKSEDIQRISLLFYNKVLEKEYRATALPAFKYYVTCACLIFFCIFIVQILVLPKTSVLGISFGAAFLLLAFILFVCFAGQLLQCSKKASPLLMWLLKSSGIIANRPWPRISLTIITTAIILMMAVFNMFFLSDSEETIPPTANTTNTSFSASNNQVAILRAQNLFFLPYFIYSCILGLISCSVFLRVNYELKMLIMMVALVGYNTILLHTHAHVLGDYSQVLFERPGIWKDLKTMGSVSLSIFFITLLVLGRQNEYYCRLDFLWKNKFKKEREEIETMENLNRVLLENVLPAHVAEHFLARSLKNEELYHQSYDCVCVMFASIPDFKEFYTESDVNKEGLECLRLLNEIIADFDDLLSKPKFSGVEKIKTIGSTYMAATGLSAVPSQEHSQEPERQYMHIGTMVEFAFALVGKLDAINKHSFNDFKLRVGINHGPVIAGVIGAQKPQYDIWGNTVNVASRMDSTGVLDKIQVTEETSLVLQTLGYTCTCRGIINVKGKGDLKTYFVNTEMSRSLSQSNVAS
T6 sequence (P63092 2-394 Q227L partner): as the sequence (P63092 2-394 Q227L partner) above
T1 sequence (O60266 whole entry): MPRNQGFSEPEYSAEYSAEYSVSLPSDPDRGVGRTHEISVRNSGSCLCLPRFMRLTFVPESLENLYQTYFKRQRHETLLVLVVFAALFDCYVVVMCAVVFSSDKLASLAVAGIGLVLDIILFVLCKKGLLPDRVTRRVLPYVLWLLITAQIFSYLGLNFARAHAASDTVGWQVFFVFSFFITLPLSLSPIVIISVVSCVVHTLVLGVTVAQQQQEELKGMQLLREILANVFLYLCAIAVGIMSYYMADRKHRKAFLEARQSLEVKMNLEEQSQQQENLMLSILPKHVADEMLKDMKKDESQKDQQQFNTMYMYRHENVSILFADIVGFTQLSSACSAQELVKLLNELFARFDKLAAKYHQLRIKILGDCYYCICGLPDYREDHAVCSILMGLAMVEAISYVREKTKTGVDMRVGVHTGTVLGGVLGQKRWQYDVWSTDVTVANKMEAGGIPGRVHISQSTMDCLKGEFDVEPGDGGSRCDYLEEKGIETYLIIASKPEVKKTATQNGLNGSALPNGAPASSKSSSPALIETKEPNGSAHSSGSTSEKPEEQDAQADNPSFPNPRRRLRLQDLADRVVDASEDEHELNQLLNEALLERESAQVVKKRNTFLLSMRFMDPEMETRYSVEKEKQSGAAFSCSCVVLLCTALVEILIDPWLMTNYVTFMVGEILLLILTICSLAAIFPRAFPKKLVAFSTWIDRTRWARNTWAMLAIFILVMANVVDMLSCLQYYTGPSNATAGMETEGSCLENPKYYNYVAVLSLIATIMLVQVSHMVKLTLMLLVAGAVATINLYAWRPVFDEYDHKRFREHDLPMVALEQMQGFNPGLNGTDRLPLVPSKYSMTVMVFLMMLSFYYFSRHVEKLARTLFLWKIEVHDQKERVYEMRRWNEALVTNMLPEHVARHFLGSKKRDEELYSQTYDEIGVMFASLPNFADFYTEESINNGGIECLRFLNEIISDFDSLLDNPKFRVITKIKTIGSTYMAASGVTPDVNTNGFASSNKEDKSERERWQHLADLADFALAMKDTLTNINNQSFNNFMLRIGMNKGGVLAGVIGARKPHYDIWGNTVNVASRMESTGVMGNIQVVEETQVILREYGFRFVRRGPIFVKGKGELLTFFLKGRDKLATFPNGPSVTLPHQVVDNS
T1 sequence (P63092 whole entry Q227L partner): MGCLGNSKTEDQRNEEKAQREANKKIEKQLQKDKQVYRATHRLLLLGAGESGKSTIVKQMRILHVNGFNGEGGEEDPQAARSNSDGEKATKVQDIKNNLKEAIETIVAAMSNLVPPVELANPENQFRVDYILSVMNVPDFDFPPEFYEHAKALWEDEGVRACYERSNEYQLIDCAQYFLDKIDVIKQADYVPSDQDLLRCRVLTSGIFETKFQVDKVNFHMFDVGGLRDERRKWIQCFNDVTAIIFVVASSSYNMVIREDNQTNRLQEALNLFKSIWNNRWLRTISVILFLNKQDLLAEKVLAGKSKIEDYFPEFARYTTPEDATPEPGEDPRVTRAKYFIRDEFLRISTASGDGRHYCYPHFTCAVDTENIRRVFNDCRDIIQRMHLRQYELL

Compound	mAC3 activity [%] (100% = 300nM Gsα stimulation) (mAC3)	mAC5 activity [%] (100% = 300nM Gsα stimulation) (mAC5)	mAC7 activity [%] (100% = 300nM Gsα stimulation); 20µM fatty acid concentration (mAC7)	mAC9 activity [%] (100% = 300nM Gsα stimulation); 20µM fatty acid concentration (mAC9)	mAC1 activity [%] (100% = 300nM Gsα stimulation); 20µM fatty acid concentration (mAC1)	Effect of lipid on 300 nM Gsα-stimulated mAC1 (mAC1; 20 µM, in words)	mAC2 activity [%] (100% = 300nM Gsα stimulation); 20µM fatty acid concentration (mAC2)	Effect of lipid on 300 nM Gsα-stimulated mAC3 (mAC3)	Effect of lipid on 300 nM Gsα-stimulated mAC4 (mAC4; 20 µM, in words)	mAC6 activity [%] (100% = 300nM Gsα stimulation) (mAC6)	mAC4 activity [%] (100% = 300nM Gsα stimulation); 20µM fatty acid concentration (mAC4)	EC50 (mAC7; enhancement of 300 nM Gsα-stimulated activity) [µM]	activity at 0.3 µM (mAC7; read-out: mAC7 activity (%);(100% = Gsα stimulation) stimulated by 300nM Gsα, Elaidic acid 0.3 µM) [%]	mAC9 activity (%);(100% = Gsα stimulation) stimulated by 300nM Gsα (mAC9; 3 µM fatty acid)	mAC9 activity (%);(100% = Gsα stimulation) stimulated by 300nM Gsα (mAC9; 6 µM fatty acid)	EC50 (mAC9; enhancement of 300 nM Gsα-stimulated activity, read-out: EC50 for mAC9) [µM]
CCCCCCCC/C=C\CCCCCCCC(=O)OC(CO)CO [2-Oleoylglycerol]	72%	96%	93%	131%	–	–	–	–	–	–	–	–	–	–	–	–
CC/C=C\C/C=C\C/C=C\C/C=C\C/C=C\CCCC(=O)O [EPA, Eicosapentaenoic ((5Z,8Z,11Z,14Z,17Z)-eicosapentaenoic) acid]	169% and 200% and 266% and 160%	101% and 83%	113% and 166%	–	99% and 107% and 86% and 87%	no effect	102% and 159%	less efficacious	no effect	112% and 108%	–	–	–	–	–	–
CCCCCCCC/C=C/CCCCCCCC(=O)O [Elaidic acid, Elaidic ((9E)-octadecenoic) acid]	437% and 276% and 279% and 778% and 673%	–	–	–	72% and 100%	–	131%	efficient enhancers	–	101% and 97%	130% and 156% and 151%	9.7	100	154% and 261% and 166% and 178%	346% and 329% and 316% and 303% and 243%	5
CC/C=C\C/C=C\C/C=C\CCCCCCCC(=O)O [Linolenic acid, Linolenic ((9Z,12Z,15Z)-octadecatrienoic) acid]	159% and 177% and 241% and 105% and 288% and 273%	79% and 81%	–	–	63% and 90%	–	99% and 105%	less efficacious	–	103% and 104%	62% and 65% and 86%	–	–	144% and 110% and 75%	125% and 149% and 124% and 119% and 96%	–
CCCCCCCC/C=C\CCCCCCCC(=O)OC [Me-Oleate, Methyl oleate]	141% and 90%	60% and 91%	115% and 85%	86% and 143%	99% and 63%	–	121% and 73%	–	–	78% and 90%	77% and 99%	–	–	–	–	–
O=C(O)CCCCCCCCCCCCCCCCCCC(=O)O [Octadecane-(COOH)2, 1,18-Octadecanedicarboxylic acid]	104% and 106% and 66%	102% and 118% and 78%	81% and 97%	102% and 67%	88% and 87% and 108%	–	101% and 81% and 91%	–	–	83% and 136% and 76%	91% and 73%	–	–	–	–	–
Triolein	96%	95%	83%	107%	–	–	–	–	–	–	–	–	–	–	–	–

Source: article PMC11606603, “The membrane domains of mammalian adenylyl cyclases are lipid receptors” (eLife, 2024)
